Measured values as given in PubChem BioAssay AID2060335 (Molecular Pharmacology Branch, DTP, NCI, 2025).
pIC50: −log10 of the molar value. “And” between values parts separate entries of the source, which are not always exact repeats. Equal entries are not always repeated.

Tested on: DU-145 multicell spheroids with HUVEC/MSC, viability
Experiment: Anticancer human tumor DU-145 cell line growth inhibition [IpAb];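 further: spheroids exposed to agents for seven days before measurement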;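 on viability, T/C: percent of DMSO vehicle control viability so 100% = untreated level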
Settings: for viability, T/C: stronger effect = lower value; active means viability on the fitted dose curve at most 10% of control; inactive means the rest
Description: Combinatorial screen of targeted agents with ipatasertib and abemaciclib in multi-cell type tumor spheroids
A high-throughput screen of multi-cell type tumor spheroids was designed to identify active combinations of targeted small molecules and ipatasertib or abemaciclib. Complex spheroids include a stromal component modeled by human endothelial cells (HUVEC) and fibroblasts modeled by human mesenchymal stem cells (MSCs). The concentration ranges selected for each drug and investigational agent were based upon clinically achievable concentrations if the clinical Cmax of the agent was known.
Compounds. The drugs and investigational agents: ipatasertib (NSC767898), abemaciclib(NSC768073), selumetinib (NSC741078), trametinib (758246), adavosertib (NSC754352), everolimus (NSC733504), sapanisertib (NSC764658), vemurafenib (NSC761431), venetoclax (NSC766270), copanlisib (NSC809693), apelisib (NSC765974), palbociblib (NSC758247), vemurafenib (NSC761431), dabrafenib (NSC764134), ravoxertinib (NSC781343), BMS-387032 (NSC767048), sotorasib (NSC818433), talazoparib (NSC767125) and afursertib (NSC778305), were obtained from the National Cancer Institute (NCI) Developmental Therapeutics Program Chemical Repository. The FDA-approved anticancer drug set is available from the NCI Developmental Therapeutics Program. […] The stock solutions were prepared in dimethyl sulfoxide (DMSO, Sigma-Aldrich, St. Louis, MO, cat. D2650) at 800-fold the tested concentration and stored at -70 degrees C prior to their use. All drugs and investigational agents were tested over a range starting from a high concentration at or near the clinical Cmax and decreasing in half-log increments. If the clinical Cmax for an agent had not been determined, the highest concentration tested was 10 microM.
NCI60 Cell Culture. NCI60 cell lines were obtained from the NCI Developmental Therapeutics Program Tumor Repository. For each lot of cells, the Repository performed Applied Biosystems AmpFLSTR Identifiler testing with PCR amplification to confirm consistency with the published Identifier STR profile for each cell line. Cells were kept in continuous culture for no more than 20 passages. The optimal seeding densities for each of the cell lines at each time point assessed were determined prior to performing the concentration response studies. Briefly, the NCI60 human tumor lines were grown as monolayers in RPMI 1640 medium supplemented with 10% FBS and 2 mmol/L L-glutamine.
An additional 9 lines were from the NCI60 cell line panel including MDA-MB-231 breast carcinoma, MDA-MB-468 breast carcinoma, MCF7 breast carcinoma, Hs578T breast carcinoma, MALME-3M melanoma, SK-MEL-2 melanoma, SK-OV-3 ovarian carcinoma, DU-145 prostate carcinoma, PC-3 prostate carcinoma, all cell lines along with major genetic alterations are listed on Table 2. Pooled donor human umbilical vein endothelial cells (HUVEC, Lonza, cat. CC-2519) and human mesenchymal stem cells (hMSC, Lonza, cat. PT-2501) were purchased from Lonza (Walkersville, MD).
PDMR cell lines were grown in complete medium (DC medium): Dulbecco's modified Eagle's medium (DMEM)/F12 supplemented with 5% fetal bovine serum (FBS), 2 mM L-glutamine, 100 U/mL penicillin and 100 µg/ml streptomycin, 0.4 µg/ml hydrocortisone, 10 ng/ml epidermal growth factor (EGF) recombinant human protein, 24 µg/mL adenine, and 0.1 mg/mL primocin. During culture from frozen stock vials, PDMR cells were cultured in the same medium containing 10 µM Y-27632 (see Table 3). The PDCs were cultured in complete DMEM/F12 media without 10 microM Y-27632 dihydrochloride for at least two passages prior to the screen. The pooled donor HUVEC and hMSC were cultured in endothelial cell growth medium 2 (PromoCell, Heidelberg, Germany, cat. C-22011) and mesenchymal stem cell growth medium 2 (PromoCell, cat. C-28009), respectively. For all experiments, HUVEC and hMSC were used at passages </=5.
[…]

Cc1nc(NC(=O)N2CCCC2C(N)=O)sc1-c1ccnc(C(C)(C)C(F)(F)F)c1 (stereo not given)
inactive: viability, T/C (compound 0.0316 µM) 81% and 75.7% | viability, T/C (compound 0.1 µM) 60.6% and 54.3% | viability, T/C (compound 0.316 µM) 39.9% and 37.3% | viability, T/C (compound 1 µM) 29% and 31.4% | viability, T/C (compound 3.16 µM) 21.7% and 20.9%
6.72 and 6.80: pIC50 (curve of compound)
8.51% and 8.2%: viability, T/C (compound 10 µM)

Cn1cnc2c(F)c(Nc3ccc(Br)cc3Cl)c(C(=O)NOCCO)cc21
6.22 and 6.15: pIC50 (curve of compound)
inactive: viability, T/C (compound 0.00949 µM) 84.1% and 81.8% | viability, T/C (compound 0.03 µM) 67.6% and 74.4% | viability, T/C (compound 0.0949 µM) 60.8% and 66.5% | viability, T/C (compound 0.3 µM) 55.5% and 53.2% | viability, T/C (compound 0.949 µM) 48% and 51.1% | viability, T/C (compound 3 µM) 42.9% and 37.9%

Cn1ncc(Cl)c1-c1cc(C(=O)NC(CN)Cc2cccc(F)c2)sc1Cl (stereo not given)
active: viability, T/C (compound 10 µM) 1.17% and 1.6%
inactive: viability, T/C (compound 0.0316 µM) 92.5% and 86.1% | viability, T/C (compound 0.1 µM) 74.3% and 61.8% | viability, T/C (compound 0.316 µM) 41.4% and 33.2% | viability, T/C (compound 1 µM) 27.6% and 23.1% | viability, T/C (compound 3.16 µM) 20.3% and 15.2%
6.57 and 6.79: pIC50 (curve of compound)

Cn1nccc1Nc1nccc(-c2ccn(C(CO)c3ccc(Cl)c(F)c3)c(=O)c2)n1 (stereo not given)
inactive: viability, T/C (compound 0.0316 µM) 87.3% and 90% | viability, T/C (compound 0.1 µM) 72.5% and 77.1% | viability, T/C (compound 0.316 µM) 79% and 73.5% | viability, T/C (compound 1 µM) 93.7% and 87.4% | viability, T/C (compound 3.16 µM) 112% and 116% | viability, T/C (compound 10 µM) 65% and 81.9%
< 5.00: pIC50 (curve of compound)

Cn1ncnc1[C@H]1c2n[nH]c(=O)c3cc(F)cc(c23)N[C@@H]1c1ccc(F)cc1
inactive: viability, T/C (compound 0.000316 µM) 109% and 101% | viability, T/C (compound 0.001 µM) 105% and 99.7% | viability, T/C (compound 0.00316 µM) 97.9% and 92.2% | viability, T/C (compound 0.01 µM) 99.3% and 96.5% | viability, T/C (compound 0.0316 µM) 95.1% and 97.6% | viability, T/C (compound 0.1 µM) 92.9% and 80.5%
< 7.00: pIC50 (curve of compound)

Cn1cnc2c(F)c(Nc3ccc(Br)cc3Cl)c(C(=O)NOCCO)cc21 + CC(C)NCC(C(=O)N1CCN(c2ncnc3c2C(C)CC3O)CC1)c1ccc(Cl)cc1
6.80: pIC50 (curve of first compound, second compound 0.1 µM)
inactive: viability, T/C (second compound 0.1 µM, first compound 0.00949 µM) 64.7% | viability, T/C (second compound 0.1 µM, first compound 0.03 µM) 62.4% | viability, T/C (second compound 0.1 µM, first compound 0.0949 µM) 52.3% | viability, T/C (second compound 0.1 µM, first compound 0.3 µM) 41.3% | viability, T/C (second compound 0.1 µM, first compound 0.949 µM) 46.5% | viability, T/C (second compound 0.1 µM, first compound 3 µM) 34.9% | viability, T/C (second compound 0.316 µM, first compound 0.00949 µM) 44.7% | viability, T/C (second compound 0.316 µM, first compound 0.03 µM) 41.9% | viability, T/C (second compound 0.316 µM, first compound 0.0949 µM) 38.8% | viability, T/C (second compound 0.316 µM, first compound 0.3 µM) 33.1% | viability, T/C (second compound 0.316 µM, first compound 0.949 µM) 32.9% | viability, T/C (second compound 0.316 µM, first compound 3 µM) 25% | viability, T/C (second compound 1 µM, first compound 0.00949 µM) 31.4% | viability, T/C (second compound 1 µM, first compound 0.03 µM) 30.4% | viability, T/C (second compound 1 µM, first compound 0.0949 µM) 27.6% | viability, T/C (second compound 1 µM, first compound 0.3 µM) 23% | viability, T/C (second compound 1 µM, first compound 0.949 µM) 21.5% | viability, T/C (second compound 1 µM, first compound 3 µM) 19.2% | viability, T/C (second compound 3.16 µM, first compound 0.00949 µM) 18.2% | viability, T/C (second compound 3.16 µM, first compound 0.03 µM) 17% | viability, T/C (second compound 3.16 µM, first compound 0.0949 µM) 16.5% | viability, T/C (second compound 3.16 µM, first compound 0.3 µM) 14.3% | viability, T/C (second compound 3.16 µM, first compound 0.949 µM) 14.5% | viability, T/C (second compound 3.16 µM, first compound 3 µM) 12% | viability, T/C (second compound 10 µM, first compound 0.00949 µM) 16.2% | viability, T/C (second compound 10 µM, first compound 0.03 µM) 13.7% | viability, T/C (second compound 10 µM, first compound 0.0949 µM) 13.3% | viability, T/C (second compound 10 µM, first compound 0.3 µM) 11.8% | viability, T/C (second compound 10 µM, first compound 0.949 µM) 11.4% | viability, T/C (second compound 10 µM, first compound 3 µM) 10.4%
> 8.02: pIC50 (curve of first compound, second compound 0.316 µM) | pIC50 (curve of first compound, second compound 1 µM) | pIC50 (curve of first compound, second compound 3.16 µM) | pIC50 (curve of first compound, second compound 10 µM)
